Laboratory results as given in ChEMBL document CHEMBL4680278 (J Med Chem, 2020).

Assays:
[1] = target: Delta-type opioid receptor (Homo sapiens, UniProt P41143); test: Inhibition of delta-type opioid receptor receptor (unknown origin)
[2] = Cmax in human plasma at 3.5 +/- 5.5 mg, INH; assay type: ADME, cell-free; parameters: dose 3.5 mg; details: inhaled or intranasal, 3.5 mg
[3] = Cmax in mouse brain at 10 mg/kg, sc measured after 1 to 3 hrs by HPLC analysis; assay type: ADME, organism-based; parameters: route subcutaneous, time lower 1 hrs, dose 10 mg/kg, time upper 3 hrs
Cytochrome P450 1A1 = target: T1, Cytochrome P450 1A1 (Homo sapiens, UniProt P04798); test: Competitive inhibition of human recombinant CYP1A1 using 7-Ethoxyresorufin as substrate by Lineweaver-Burk plot analysis; assay type: ADME; details: read-out: Ki(app)
T1 sequence (P04798 whole entry): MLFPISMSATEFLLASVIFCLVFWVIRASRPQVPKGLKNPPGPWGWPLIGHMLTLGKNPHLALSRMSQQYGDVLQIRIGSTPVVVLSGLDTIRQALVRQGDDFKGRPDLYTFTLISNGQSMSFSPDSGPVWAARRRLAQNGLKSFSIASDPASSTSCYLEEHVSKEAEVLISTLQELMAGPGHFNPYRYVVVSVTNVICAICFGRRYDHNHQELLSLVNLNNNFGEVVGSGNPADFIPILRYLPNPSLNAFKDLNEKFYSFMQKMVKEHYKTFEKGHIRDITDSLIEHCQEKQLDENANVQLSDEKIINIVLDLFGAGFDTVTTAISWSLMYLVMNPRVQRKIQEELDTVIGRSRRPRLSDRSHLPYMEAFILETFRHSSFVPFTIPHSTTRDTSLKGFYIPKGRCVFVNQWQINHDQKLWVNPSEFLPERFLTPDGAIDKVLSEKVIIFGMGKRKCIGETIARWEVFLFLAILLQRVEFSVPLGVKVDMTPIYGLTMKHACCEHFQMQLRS

Cytochrome P450 1A2 = target: T2, Cytochrome P450 1A2 (Homo sapiens, UniProt P05177); test: Competitive inhibition of human recombinant CYP1A2 using 7-Ethoxyresorufin as substrate by Lineweaver-Burk plot analysis; assay type: ADME; details: read-out: Ki(app)
T2 sequence (P05177 whole entry): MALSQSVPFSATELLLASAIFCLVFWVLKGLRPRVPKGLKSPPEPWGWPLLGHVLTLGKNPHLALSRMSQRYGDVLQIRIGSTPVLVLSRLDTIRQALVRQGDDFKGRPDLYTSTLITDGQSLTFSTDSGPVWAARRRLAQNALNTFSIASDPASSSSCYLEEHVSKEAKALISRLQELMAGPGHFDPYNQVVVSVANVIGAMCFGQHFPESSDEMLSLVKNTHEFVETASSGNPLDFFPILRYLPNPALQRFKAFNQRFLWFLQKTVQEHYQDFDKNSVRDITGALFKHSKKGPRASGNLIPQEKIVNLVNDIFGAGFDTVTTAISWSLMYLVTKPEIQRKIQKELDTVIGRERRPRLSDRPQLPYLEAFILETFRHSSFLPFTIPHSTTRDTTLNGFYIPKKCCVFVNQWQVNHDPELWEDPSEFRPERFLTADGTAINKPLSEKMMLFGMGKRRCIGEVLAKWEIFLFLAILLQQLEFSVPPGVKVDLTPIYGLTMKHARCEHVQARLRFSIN

[4] = Apparent oral clearance in human in fed state at 5 to 20 mg using oromucosal-spray formulation cotreated with THC by GC-MS analysis; assay type: ADME; details: in vivo, dose 5-20 mg
Cytochrome P450 2A6 = target: T3, Cytochrome P450 2A6 (Homo sapiens, UniProt P11509); test: Non-competitive inhibition of human recombinant CYP2A6 expressed in baculovirus-infected insect cells using coumarin as substrate preincubated for 5 mins followed by NADPH-generating system addition by Lineweaver-Burk plot analysis; assay type: ADME
T3 sequence (P11509 whole entry): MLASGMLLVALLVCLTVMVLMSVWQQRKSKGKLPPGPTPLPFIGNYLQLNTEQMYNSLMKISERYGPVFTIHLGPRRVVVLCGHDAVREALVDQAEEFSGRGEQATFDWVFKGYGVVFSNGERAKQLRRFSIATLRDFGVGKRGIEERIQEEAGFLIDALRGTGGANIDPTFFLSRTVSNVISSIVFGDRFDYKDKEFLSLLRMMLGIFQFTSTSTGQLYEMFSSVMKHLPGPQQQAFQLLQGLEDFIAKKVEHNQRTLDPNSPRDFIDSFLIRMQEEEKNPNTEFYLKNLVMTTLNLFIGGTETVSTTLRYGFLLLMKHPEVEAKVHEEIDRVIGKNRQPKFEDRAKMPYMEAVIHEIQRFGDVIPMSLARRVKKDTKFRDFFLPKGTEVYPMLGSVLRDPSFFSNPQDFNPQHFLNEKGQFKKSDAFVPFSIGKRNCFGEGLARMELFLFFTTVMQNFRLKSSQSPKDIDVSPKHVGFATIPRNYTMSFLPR

Cytochrome P450 3A7 = Cytochrome P450 3A7 (Homo sapiens, UniProt P24462); test: Mixed type inhibition of human recombinant CYP3A7 expressed in baculovirus-infected insect cells using diltiazem as substrate incubated for 30 mins followed by NADPH-generating system addition by Michaelis-Menten plot analysis; assay type: ADME
[5] = target: T4, Steroid 17-alpha-hydroxylase/17,20 lyase (Rattus norvegicus, UniProt P11715); test: Mixed type inhibition of CYP17 in Sprague-Dawley rat testis microsomes assessed as reduction in 17alpha-Hydroxylase activity in presence of NADPH-generating system incubated for 2 mins by Lineweaver-Burk plot analysis; assay type: ADME
T4 sequence (P11715 whole entry): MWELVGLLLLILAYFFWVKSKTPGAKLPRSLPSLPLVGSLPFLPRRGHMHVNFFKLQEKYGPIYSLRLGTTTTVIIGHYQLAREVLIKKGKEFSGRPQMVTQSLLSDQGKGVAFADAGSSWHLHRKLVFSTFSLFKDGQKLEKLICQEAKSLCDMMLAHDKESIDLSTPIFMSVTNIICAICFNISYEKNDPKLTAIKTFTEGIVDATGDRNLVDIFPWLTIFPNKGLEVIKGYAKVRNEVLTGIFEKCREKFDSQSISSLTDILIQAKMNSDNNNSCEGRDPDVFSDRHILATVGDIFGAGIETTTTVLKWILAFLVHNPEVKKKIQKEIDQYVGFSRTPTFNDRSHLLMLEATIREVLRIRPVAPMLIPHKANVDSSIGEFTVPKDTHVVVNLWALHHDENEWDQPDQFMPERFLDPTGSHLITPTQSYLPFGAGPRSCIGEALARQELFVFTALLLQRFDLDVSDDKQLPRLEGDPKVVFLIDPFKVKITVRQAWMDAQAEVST

Homo sapiens = test: Anti-seizure activity in Lennox-Gastaut patient assessed as median percent reduction in seizure frequency at 20 mg/kg administered daily for 14 weeks (reference value: 17%); assay type: functional; parameters: scale not given: the % may be the effect or the level left
clinical = details: human, in vivo, other: aerosol spray, 20 mg
Description: Elimination rate constant in human at 20 mg using aerosol spray measured for 6 weeks

Cytochrome P450 3A7, sequence (P24462 whole entry): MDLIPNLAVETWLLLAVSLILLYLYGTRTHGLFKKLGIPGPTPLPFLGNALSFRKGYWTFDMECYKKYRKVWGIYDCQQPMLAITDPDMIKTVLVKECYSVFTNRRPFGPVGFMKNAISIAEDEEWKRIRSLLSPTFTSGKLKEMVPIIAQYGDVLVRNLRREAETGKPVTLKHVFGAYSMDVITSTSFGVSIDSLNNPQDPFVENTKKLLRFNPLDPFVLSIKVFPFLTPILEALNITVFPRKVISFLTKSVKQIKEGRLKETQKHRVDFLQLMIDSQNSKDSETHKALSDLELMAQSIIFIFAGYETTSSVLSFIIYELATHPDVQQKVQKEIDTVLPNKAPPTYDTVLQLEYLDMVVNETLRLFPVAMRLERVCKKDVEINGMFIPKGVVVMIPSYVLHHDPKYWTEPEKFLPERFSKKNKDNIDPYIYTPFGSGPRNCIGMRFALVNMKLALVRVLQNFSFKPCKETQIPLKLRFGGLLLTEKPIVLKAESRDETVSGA
Delta-type opioid receptor, sequence (P41143 whole entry): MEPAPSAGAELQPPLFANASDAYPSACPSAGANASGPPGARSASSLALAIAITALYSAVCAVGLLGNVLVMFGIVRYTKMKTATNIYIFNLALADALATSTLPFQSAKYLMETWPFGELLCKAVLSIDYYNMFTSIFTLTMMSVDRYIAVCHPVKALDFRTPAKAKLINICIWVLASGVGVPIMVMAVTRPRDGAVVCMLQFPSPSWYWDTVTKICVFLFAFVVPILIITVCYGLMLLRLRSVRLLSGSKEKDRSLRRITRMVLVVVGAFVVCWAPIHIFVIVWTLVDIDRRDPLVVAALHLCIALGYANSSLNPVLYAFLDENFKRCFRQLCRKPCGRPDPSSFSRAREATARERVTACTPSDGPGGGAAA

## C=C(C)[C@@H]1CCC(C)=C[C@H]1c1c(O)cc(CCCCC)cc1O [CANNABIDIOL]
[1]
  Ki: 6.4 µM
[2]
  Cmax: 11.1 nM
[3]
  Cmax: 1000 nM
Cytochrome P450 1A1
  Ki: 0.16 µM
Cytochrome P450 1A2
  Ki: 2.69 µM
[4]
  CL/F: 8880 mL/min
Cytochrome P450 2A6
  Ki: 55 µM
Cytochrome P450 3A7
  Ki: 12.3 µM
[5]
  Ki: 124 µM
Homo sapiens
  Activity: 42%
clinical
  k el at 1008 h: 0.000119 s⁻¹
